Experiment [1] has as its system Reactive Oxygen Species (ROS) within SH-SY5Y neuroblastoma cells. The experiment can be described thus: H2O2-induced Reactive Oxygen Species generation in SH-SY5Y cells (DCF-DA). Format: cell-based, human. Conditions: Example 12. The method, then:
Reactive Oxygen Species (ROS) within cells can be quantified by indexing using the fluorescent probe 2′,7′-dichlorofluroescin diacetate (DCF-DA) (Sigma-Aldrich, USA). When oxidized to the reactive oxygen metabolite, the DCF-DA can be excited at 485 nm and releases fluorescence at 530 nm.
SH-SY5Y neuroblastoma cells were incubated with 100 μl of 10% 1-BS/MEM in a 5×10^4 cells/well 96-well plate and cultured 24 hours, as in Example 1. The 10% FBS/MEM was removed and 1% FBS/MEM added to the cells. Composition A, B, C, D, or E was administered, and then DCF-DA in keeping with the DCF-DA assay described above.
After 4 hours, a 0.25 uM solution of H2O2 (a toxicity-inducing substance) was administered. Incubation time was for 2 hours before fluorescence test. Subsequently, fluorescence was measured at 530 nm to assess the level of active oxygen production.
In Examples 8 and 9, SH-SY5Y cells were exposed in separate, parallel models to H2O2 and FeSO4 to induce controlled cell death, but instead of analyzing cell viability in the presence of various active compounds, reactive oxygen species (ROS) generation was measured in the presence of various formulations, following peer-reviewed published methods. […]
Reactive oxygen species generation induced by H2O2 was measured by incubation with a fluorescent probe 2′,7′-dichlorofluorescin diacetate (DCF-DA). […]

A further experiment deals with TNF-α. Nature of the experiment: LPS-induced TNF-α production in RAW264.7 cells (ELISA). Format: cell-based, mouse. The note with it: for reduction in LPS-induced TNF-α production, RAW264.7 cells: omega-3/omega-6 study with DHA EE, EPA EE, SDA EE (toxic amount of SDA EE); for reduction in LPS-induced TNF-α production: study challenging RAW264.7 cells in 3 batches. The method, then: RAW264.7 cells were seeded in 96 well plates at a density of 20,000 cells/well. On day 2, the cells were serum starved for 24 h in DMEM. Then, the cells were pre-treated with 60 μg/ml of Peptylin® alone or in combination with 50 μM or 100 μM NeurXcel® EE diluted in DMEM. Appropriate vehicle controls have been included, i.e. 0.5% EtOH+1.2% H2O. On day 4 the cells were LPS-induced (500 ng/ml) for 1.5 h and the supernatants were collected. A WST-8 assay was performed to measure cell viability and the supernatants were used for an ELISA assay to measure TNF-α levels. All the experiments were carried out with 9 replicates (for control and LPS treated cells) or 24 replicates (for cells treated with NX and/or PT). A t-test was used to compare the media of TNF-α levels between the treatment of NX alone and in combination with PT.
3.4 Experimental procedure RAW264.7 cells were seeded in 96-well plates at a density of 20,000 cells/well in DMEM+10% FBS. The next day, the cells were washed once with DPBS and serum starved for 24 h in 150 μL of DMEM. Then, the cells were treated with 150 μL of 60 μg/ml of Peptylin® and 100 or 50 μM NeurXcel® EE that were used either alone or in combination. Appropriate vehicle controls were also included in the assay, i.e. 0.5% ethanol+1.2% H2O. After 24 h, the cells were incubated for 1.5 h with 10 μL of LPS (7500 ng/ml) to reach a final concentration of 500 ng/ml. After the incubation, the supernatants were collected and a WST-8 assay was carried out. CCK-8 reagent (WST-8) was diluted 1:10 in DMEM media and 100 μL were added to each well and the plate was incubated at 37° C. After 15 minutes the absorbance was measured at 450 nm using the Synergy II microplate reader. WST-8 is bioreduced by cellular dehydrogenases to an orange formazan product that is soluble in tissue culture medium. The amount of formazan produced is directly proportional to the number of living cells. The ELISA assay was performed following the manufacturer's instructions. The TNF-α levels produced under each condition were normalized to the corresponding vehicle control (with or without EtOH). All the experiments were carried out with 9 replicates (for control and LPS treated cells) or 24 replicates (for cells treated with NX and/or PT). […] Using Microsoft Excel the following formula was used to calculate the p-value: =T.TEST (array1, array2, tails, type), where array1 corresponds to the TNF-α values for one treatment, array2 corresponds to TNF-α values for the co-treatment, one-tail test has been considered and type is 2 (two sample equal variance t-test). A p-value of 0.05 was used as the cutoff for significance.
After the treatments, the supernatants were collected and an ELISA assay was performed. First, the standard curve was generated (FIG. 43).
The TNF-α standard was measured in 8 serial 1:2 dilutions ranging from 0-4000 pg/ml. TNF-α production was measured by ELISA. Control: cells maintained in DMEM; LPS: LPS-induced cells in DMEM+0.5% EtOH+1.2% H2O; PT: cells pre-treated with 60 μg/ml of Peptylin® for 24 h; 50 NX and 100 NX: cells treated with 50 or 100 μM NX for 24 h; 50NX+PT and 100NX+PT: cells pre-treated with 50 or 100 μM NX and 60 μg/ml PT for 24 h. Then the cells were induced with 500 ng/ml LPS for 1.5 h. The data represent the mean±SD of an experiment performed in nine replicates (for Cntr and LPS) or 24 replicates (for PT and NX treatments). NS: non-significant; *** p<0.001.

The test system of a further experiment is TNF-alpha. The experiment can be described thus: LPS-induced TNF-alpha production in BV-2 cells. It counts as cell-based. Conditions: compared with LPS controls.

Regarding `CC(=O)N[C@@H](CS)C(=O)O` [NAC, N-Acetyl-L-cysteine], the “restoration of SH-SY5Y cells (positive control group)” value in experiment [1] is listed as “restored to normal levels”.
`CC/C=C\C/C=C\C/C=C\C/C=C\CCCCC(=O)OCC` [SDA EE]: in the experiment on TNF-α, the “reduction in LPS-induced TNF-α production, RAW264.7 cells” value (shortened to “reduction … RAW264.7 cells”) is 35-71% and the “reduction in LPS-induced TNF-α production” value is on record as 16-24%.
Take `CCCCC/C=C\C/C=C\C/C=C\CCCCCCC(=O)OCC` [DGLA EE]: in the experiment with TNF-α, the “reduction in LPS-induced TNF-α production” value is recorded as 11-18%.
Consider `CC/C=C\C/C=C\C/C=C\C/C=C\C/C=C\C/C=C\CCC(=O)OCC` [DHA EE], for which the “reduction … RAW264.7 cells” value in the experiment with TNF-α is 21-42%.
Take `CC/C=C\C/C=C\C/C=C\C/C=C\C/C=C\CCCC(=O)OCC` [EPA EE, eicosapentaenoic acid, ethyl ester]: the “reduction … RAW264.7 cells” value in the experiment on TNF-α is 32%. Moreover, the “reduction in LPS-induced TNF-alpha production, BV-2 cells” value with TNF-alpha (another study) is recorded as 18%; with TNF-alpha (study in which EPA EE gave 25%), 25%; with TNF-alpha (third study), 27-33%.

The values are drawn from patent publication US12194071B2, “Methods and compositions with purified Bombyx mori cocoon silk peptide fiber and refined Buglossoides arvensis seed oil providing anti-inflammatory effects and neuroprotection for disease states” (Brain Health Holding LLC, priority 2019, dated 2025).
